Source: patent publication US9662339B2, “Benzodioxane inhibitors of leukotriene production for combination therapy” (Boehringer Ingelheim International GmbH, priority 2012, dated 2017)
pIC50: −log10 of the molar value.

Target: human LTA4 hydrolase (Homo sapiens (Human), UniProt P09960)
Assay: LTA4H Enzyme assay (cleavage of Arg-AMC, fluorescence)
Assay type: biochemical
Details: LTA4H Enzyme 1 nM, Arg-AMC substrate 50 μM, room temperature 1 h
Procedure: The compounds of the invention are assessed for the ability to interact with human LTA4 hydrolase in an enzymatic assay that measures the ability of the enzyme to cleave the peptide bond of arginyl-aminomethylcoumarin (Arg-AMC). LTA4H Enzyme (1 nM final), Arg-AMC substrate (50 μM final), and compound are combined in a reaction buffer (50 mM Tris-HCl (pH 7.5), 100 mM KCl, 0.5% bovine serum albumin) at room temperature for 1 h. The formation of product is assessed by measuring the fluorescence of aminomethylcoumarin product (excitation wavelength 380 nm/emission wavelength 460 nm).

Chain of human LTA4 hydrolase (P09960 whole entry): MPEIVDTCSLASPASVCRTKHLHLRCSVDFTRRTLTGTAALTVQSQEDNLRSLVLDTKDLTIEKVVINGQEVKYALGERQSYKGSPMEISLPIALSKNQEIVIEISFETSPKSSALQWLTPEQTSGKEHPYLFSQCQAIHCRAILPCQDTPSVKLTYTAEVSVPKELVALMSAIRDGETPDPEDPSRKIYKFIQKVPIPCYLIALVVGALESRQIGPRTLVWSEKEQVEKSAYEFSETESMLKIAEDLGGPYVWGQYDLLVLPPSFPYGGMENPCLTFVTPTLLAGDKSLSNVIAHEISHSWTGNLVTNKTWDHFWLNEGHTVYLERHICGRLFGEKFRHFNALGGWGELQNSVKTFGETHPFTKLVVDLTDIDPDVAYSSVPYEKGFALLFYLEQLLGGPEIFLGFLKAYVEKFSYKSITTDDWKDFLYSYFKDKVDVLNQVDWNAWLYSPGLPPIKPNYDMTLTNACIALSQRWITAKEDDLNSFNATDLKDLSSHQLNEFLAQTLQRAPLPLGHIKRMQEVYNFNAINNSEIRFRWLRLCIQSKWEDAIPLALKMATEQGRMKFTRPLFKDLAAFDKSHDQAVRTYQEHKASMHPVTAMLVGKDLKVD

Row | Compound | pIC50
1 | O[C@H]1CCN(Cc2ccc(C3COc4ccccc4O3)cc2)C1 (mixture of isomers) [Example 9, (3S)-1-[4-(2,3-dihydro-1,4-benzodioxin-2-yl)benzyl]pyrrolidin-3-ol] | 8.83
2 | c1ccc2c(c1)OCC(c1ccc(CNC3CCCC3)cc1)O2 (centres unmarked) [Example 41, N-[4-(2,3-dihydro-1,4-benzodioxin-2-yl)benzyl]cyclopentanamine] | 8.43
3 | c1ccc2c(c1)OCC(c1ccc(CN3CCCCCC3)cc1)O2 (centres unmarked) [Example 40, 1-[4-(2,3-dihydro-1,4-benzodioxin-2-yl)benzyl]azepane] | 9.09
4 | O=C1NCCC12CCN(Cc1ccc([C@@H]3COc4ccccc4O3)cc1)CC2 [Example 195, 8-[(R)-4-(2,3-Dihydro-benzo[1,4]dioxin-2-yl)-benzyl]-2,8-diaza-spiro[4.5]decan-1-one] | 8.80
5 | OC1CCN(Cc2ccc([C@H]3COc4ccccc4O3)cc2)CC1 [Example 192, (S)-1-[4-(2,3-Dihydro-benzo[1,4]dioxin-2-yl)-benzyl]-piperidin-4-ol] | 9.37
6 | O=C1NCCC12CCN(Cc1ccc([C@H]3COc4ccccc4O3)cc1)CC2 [Example 194, 8-[(S)-4-(2,3-Dihydro-benzo[1,4]dioxin-2-yl)-benzyl]-2,8-diaza-spiro[4.5]decan-1-one] | 9.82
7 | c1cnc2c(c1)OCC(c1ccc(CN3CCOCC3)cc1)O2 (racemic) [Example 18, 3-[4-(morpholin-4-ylmethyl)phenyl]-2,3-dihydro[1,4]dioxino[2,3-b]pyridine] | 8.94
8 | CN(C)C(=O)CC1CCN(Cc2ccc(C3COc4ccccc4O3)cc2)CC1 (centres unmarked) [Example 38, 2-{1-[4-(2,3-dihydro-1,4-benzodioxin-2-yl)benzyl]piperidin-4-yl}-N,N-dimethylacetamide] | 8.94
9 | O=S1(=O)CCN(Cc2ccc(C3COc4cccnc4O3)cc2)CC1 (racemic) [Example 17, 3-{4-[(1,1-dioxidothiomorpholin-4-yl)methyl]phenyl}-2,3-dihydro[1,4]dioxino[2,3-b]pyridine] | 9.11
10 | CC(=O)N1CCCN(Cc2ccc(C3COc4ccccc4O3)cc2)CC1 (centres unmarked) [Example 31, 1-{4-[4-(2,3-dihydro-1,4-benzodioxin-2-yl)benzyl]-1,4-diazepan-1-yl}ethanone] | 8.81
11 | OCCCC1CCN(Cc2ccc(C3COc4ccccc4O3)cc2)CC1 (centres unmarked) [Example 29, 3-{1-[4-(2,3-dihydro-1,4-benzodioxin-2-yl)benzyl]piperidin-4-yl}propan-1-ol] | 8.69
12 | c1ccc2c(c1)OCC(c1ccc(CN3CCn4cnnc4C3)cc1)O2 (racemic) [Example 16, 7-[4-(2,3-dihydro-1,4-benzodioxin-2-yl)benzyl]-5,6,7,8-tetrahydro[1,2,4]triazolo[4,3-a]pyrazine] | 8.63
13 | CC1(C)CCN(Cc2ccc(C3COc4ccccc4O3)cc2)CC1 (centres unmarked) [Example 3, 1-[4-(2,3-dihydro-1,4-benzodioxin-2-yl)benzyl]-4,4-dimethylpiperidine] | 8.59
14 | NC(=O)NC1CCN(Cc2ccc(C3COc4ccccc4O3)cc2)CC1 (racemic) [Example 53, 1-{1-[4-(2,3-dihydro-1,4-benzodioxin-2-yl)benzyl]piperidin-4-yl}urea] | 9.38
15 | c1cnc2c(c1)OCC(c1ccc(CN3CCCC3)cc1)O2 (racemic) [Example 15, 3-[4-(pyrrolidin-1-ylmethyl)phenyl]-2,3-dihydro[1,4]dioxino[2,3-b]pyridine] | 9.44
16 | CCN(CC)Cc1ccc(C2COc3ccccc3O2)cc1 (centres unmarked) [Example 45, N-[4-(2,3-dihydro-1,4-benzodioxin-2-yl)benzyl]-N-ethylethanamine] | 9.05
17 | O=C(O)C1CCCN(Cc2ccc(C3COc4ccccc4O3)cc2)C1 (centres unmarked) [Example 113, 1-[4-(2,3-dihydro-1,4-benzodioxin-2-yl)benzyl]piperidine-3-carboxylic acid] | 8.60
18 | CC[C@@H](C)NCc1ccc(C2COc3ccccc3O2)cc1 (stereo partly drawn) [Example 24, (2R)-N-[4-(2,3-dihydro-1,4-benzodioxin-2-yl)benzyl]butan-2-amine] | 8.23
19 | O[C@@H]1CCN(Cc2ccc(C3COc4ccccc4O3)cc2)C1 (stereo partly drawn) [Example 34, (3R)-1-[4-(2,3-dihydro-1,4-benzodioxin-2-yl)benzyl]pyrrolidin-3-ol] | 8.72
20 | O=C(NCCO)C1CCN(Cc2ccc(C3COc4ccccc4O3)cc2)CC1 (racemic) [Example 52, 1-[4-(2,3-dihydro-1,4-benzodioxin-2-yl)benzyl]-N-(2-hydroxyethyl)piperidine-4-carboxamide] | 9.12
21 | O=S1(=O)CCN(Cc2ccc(C3COc4ccccc4O3)cc2)CC1 (centres unmarked) [Example 7, 4-[4-(2,3-dihydro-1,4-benzodioxin-2-yl)benzyl]thiomorpholine 1,1-dioxide] | 8.55
22 | c1cncc(CNCc2ccc(C3COc4ccccc4O3)cc2)c1 (centres unmarked) [Example 54, 1-[4-(2,3-dihydro-1,4-benzodioxin-2-yl)phenyl]-N-(pyridin-3-ylmethyl)methanamine] | 8.23

Row | Compound | pIC50
23 | O=C1NC(=O)C2(CCN(Cc3ccc(C4COc5ccccc5O4)cc3)CC2)N1 (centres unmarked) [Example 35, 8-[4-(2,3-dihydro-1,4-benzodioxin-2-yl)benzyl]-1,3,8-triazaspiro[4.5]decane-2,4-dione] | 9.59
24 | O=C1NCCC12CCN(Cc1ccc(C3COc4ccccc4O3)cc1)CC2 (centres unmarked) [Example 4, 8-[4-(2,3-dihydro-1,4-benzodioxin-2-yl)benzyl]-2,8-diazaspiro[4.5]decan-1-one] | 9.13
25 | CC(C)(C)NCc1ccc(C2COc3ccccc3O2)cc1 (centres unmarked) [Example 23, N-[4-(2,3-dihydro-1,4-benzodioxin-2-yl)benzyl]-2-methylpropan-2-amine] | 8.28
26 | c1ccc2c(c1)OC[C@@H](c1ccc(CN3CCOCC3)cc1)O2 [Example 199, 4-[(R)-4-(2,3-dihydro-benzo[1,4]dioxin-2-yl)-benzyl]-morpholine] | 7.40
27 | c1ccc2c(c1)OC[C@@H](c1ccc(CN3CCCC3)cc1)O2 [Example 197, 1-[(R)-4-(2,3-dihydro-benzo[1,4]dioxin-2-yl)-benzyl]-pyrrolidine] | 8.57
28 | CS(=O)(=O)C1CCN(Cc2ccc(C3COc4ccccc4O3)cc2)CC1 (centres unmarked) [Example 39, 1-[4-(2,3-dihydro-1,4-benzodioxin-2-yl)benzyl]-4-(methylsulfonyl)piperidine] | 8.67
29 | c1ccc2c(c1)OC[C@H](c1ccc(CN3CCOCC3)cc1)O2 [Example 198, 4-[(S)-4-(2,3-dihydro-benzo[1,4]dioxin-2-yl)-benzyl]-morpholine] | 8.64
30 | N#CC1CN(Cc2ccc(C3COc4ccccc4O3)cc2)C1 (centres unmarked) [Example 46, 1-[4-(2,3-dihydro-1,4-benzodioxin-2-yl)benzyl]azetidine-3-carbonitrile] | 7.61
31 | CN(CCc1ccccn1)Cc1ccc(C2COc3ccccc3O2)cc1 (centres unmarked) [Example 42, N-[4-(2,3-dihydro-1,4-benzodioxin-2-yl)benzyl]-N-methyl-2-(pyridin-2-yl)ethanamine] | 9.16
32 | O=C1CCCN1CC1CCCN(Cc2ccc(C3COc4ccccc4O3)cc2)C1 (racemic) [Example 10, 1-({1-[4-(2,3-dihydro-1,4-benzodioxin-2-yl)benzyl]piperidin-3-yl}methyl)pyrrolidin-2-one] | 9.12
33 | c1ccc2c(c1)OC[C@H](c1ccc(CN3CCCC3)cc1)O2 [Example 196, 1-[(S)-4-(2,3-dihydro-benzo[1,4]dioxin-2-yl)-benzyl]-pyrrolidine] | 9.41
34 | CN1CCCN(Cc2ccc(C3COc4ccccc4O3)cc2)CC1 (centres unmarked) [Example 30, 1-[4-(2,3-dihydro-1,4-benzodioxin-2-yl)benzyl]-4-methyl-1,4-diazepane] | 8.75
35 | FC1CCN(Cc2ccc(C3COc4ccccc4O3)cc2)CC1 (centres unmarked) [Example 5, 1-[4-(2,3-dihydro-1,4-benzodioxin-2-yl)benzyl]-4-fluoropiperidine] | 8.53
36 | O=C(CNCc1ccc(C2COc3ccccc3O2)cc1)N1CCCC1 (centres unmarked) [Example 12, 2-{[4-(2,3-dihydro-1,4-benzodioxin-2-yl)benzyl]amino}-1-(pyrrolidin-1-yl)ethanone] | 7.99
37 | O=C1CCCN1CC1CCN(Cc2ccc(C3COc4ccccc4O3)cc2)CC1 (centres unmarked) [Example 50, 1-({1-[4-(2,3-dihydro-1,4-benzodioxin-2-yl)benzyl]piperidin-4-yl}methyl)pyrrolidin-2-one] | 9.22
38 | OC1CCN(Cc2ccc([C@@H]3COc4ccccc4O3)cc2)CC1 [Example 193, (R)-1-[4-(2,3-Dihydro-benzo[1,4]dioxin-2-yl)-benzyl]-piperidin-4-ol] | 8.27
39 | Cn1cnc(CNCc2ccc(C3COc4ccccc4O3)cc2)c1 (racemic) [Example 55, 1-[4-(2,3-dihydro-1,4-benzodioxin-2-yl)phenyl]-N-[(1-methyl-1H-imidazol-4-yl)methyl]methanamine] | 8.44
40 | COC1CN(Cc2ccc(C3COc4ccccc4O3)cc2)C1 (centres unmarked) [Example 36, 1-[4-(2,3-dihydro-1,4-benzodioxin-2-yl)benzyl]-3-methoxyazetidine] | 8.35
41 | CN(C)C(=O)C1CCN(Cc2ccc(C3COc4ccccc4O3)cc2)CC1 (centres unmarked) [Example 51, 1-[4-(2,3-dihydro-1,4-benzodioxin-2-yl)benzyl]-N,N-dimethylpiperidine-4-carboxamide] | 9.09
42 | c1ccc2c(c1)OCC(c1ccc(CN3CCCOCC3)cc1)O2 (centres unmarked) [Example 32, 4-[4-(2,3-dihydro-1,4-benzodioxin-2-yl)benzyl]-1,4-oxazepane] | 8.74
43 | CNC(=O)C1CCN(Cc2ccc(C3COc4ccccc4O3)cc2)CC1 (racemic) [Example 25, 1-[4-(2,3-Dihydro-benzo[1,4]dioxin-2-yl)-benzyl]-piperidine-4-carboxylic acid methylamide] | 9.12
44 | CS(=O)(=O)NC1CCN(Cc2ccc(C3COc4ccccc4O3)cc2)CC1 (stereo not drawn) [Example 48, N-{l-[4-(2,3-dihydro-1,4-benzodioxin-2-yl)benzyl]piperidin-4-yl}methanesulfonamide] | 9.80
